Data on one compound can be found in patent US20250099455A1, “TREATMENT FOR CONGESTIVE HEART FAILURE” (FibroGen, Inc., priority 2022, published 2025).

The assay relates to myocardial ischemia-induced heart failure (HFrEF). Description: Rat model of ischemic HFrEF, Formula I and empagliflozin alone and in combination. The class given is in vivo. How it is done: • Male Sprague Dawley rats • Ligation of left coronary artery for 30 minutes followed by reperfusion • Post-ligation recovery for 28 days • Cardiac function 28 days after ischemia-reperfusion using a Millar pressure-volume catheter inserted in the left ventricle via the carotid artery • Record pressure-volume loops over several cardiac cycles and derived cardiac function parameters A) Rat Model of Ischemic Heart Failure with Reduced Ejection Fraction (HFrEF)

Turning to `OC[C@H]1O[C@@H](c2ccc(Cl)c(Cc3ccc(O[C@H]4CCOC4)cc3)c2)[C@H](O)[C@@H](O)[C@@H]1O` [empagliflozin, reference compound], the “improvement in ejection fraction” value is given as about 30% and the “improvement in end systolic volume” value was about 30%.
